Assay results taken from patent publication US9776972B2, “Pyrazole derivatives as arginine methyltransferase inhibitors and uses thereof” (priority 2013, dated 2017).

Biological target: T1, Human CARM1 (PRMT4) (Homo sapiens, UniProt Q86X55)
T1 construct: Flag-CARM1-His; made in house; host or cells: HEK 293F cells (BacMam baculovirus)
T1 sequence (Q86X55 1-585 isoform Q86X55-1): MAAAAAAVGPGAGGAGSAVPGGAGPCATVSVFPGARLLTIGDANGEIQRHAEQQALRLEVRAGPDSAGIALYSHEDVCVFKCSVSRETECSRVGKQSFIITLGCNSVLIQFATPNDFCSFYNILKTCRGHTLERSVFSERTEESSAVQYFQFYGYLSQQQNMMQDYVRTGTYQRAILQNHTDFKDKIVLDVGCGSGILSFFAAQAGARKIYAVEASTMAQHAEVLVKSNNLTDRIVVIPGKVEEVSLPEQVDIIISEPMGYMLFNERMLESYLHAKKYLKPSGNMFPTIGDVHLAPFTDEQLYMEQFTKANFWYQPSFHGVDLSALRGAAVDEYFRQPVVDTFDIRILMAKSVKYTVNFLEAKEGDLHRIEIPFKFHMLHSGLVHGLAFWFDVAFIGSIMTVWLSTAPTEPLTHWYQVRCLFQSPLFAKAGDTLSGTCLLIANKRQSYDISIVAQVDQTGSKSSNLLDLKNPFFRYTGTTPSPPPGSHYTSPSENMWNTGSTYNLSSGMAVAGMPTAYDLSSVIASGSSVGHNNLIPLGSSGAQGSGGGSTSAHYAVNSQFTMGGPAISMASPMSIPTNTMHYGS
Assay: CARM1 Biochemical Assay (3H-SAM Flashplate, peptide substrate)
Settings: single experiment or average of multiple experiments
How it was run: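 Flag-CARM1-His from baculovirus was pre-incubated with compound for 30 min at room temperature in 20 mM Bicine pH 7.6, then reacted with 3H-SAM and a biotinylated H3(16-30) R26-monomethyl peptide.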

Row | IC50 | SMILES
1 | 0.247 µM | CC(C)Oc1ccc(-c2n[nH]cc2CN(C)CCN)cc1 [Compound 67]
2 | 3.63 µM | CN(CCN)Cc1c[nH]nc1-c1cccc(C#N)c1 [Compound 70]
3 | 0.715 µM | CN(CCN)Cc1c[nH]nc1-c1cccc(F)c1 [Compound 71]
4 | 7.04 µM | CN(CCN)Cc1c[nH]nc1-c1ccccc1F [Compound 72]
5 | 2.9 µM | CN(CCN)Cc1c[nH]nc1-c1ccccc1 [Compound 73]
6 | 3.53 µM | CN(CCN)Cc1c[nH]nc1-c1ccc(C(C)(C)C)cc1 [Compound 74]
7 | 4.19 µM | CN(CCN)Cc1c[nH]nc1-c1ccc(Cl)cc1Cl [Compound 86]
8 | 4.38 µM | COc1ccc(-c2n[nH]cc2CN(C)CCN)c(OC)c1 [Compound 87]
9 | 5.22 µM | Cc1ccc(-c2n[nH]cc2CN(C)CCN)c(C)c1 [Compound 88]
10 | 5.98 µM | CN(CCN)Cc1c[nH]nc1-c1ccc(F)cc1Cl [Compound 89]
11 | 6.92 µM | Cc1ccc(-c2n[nH]cc2CN(C)CCN)c(Cl)c1 [Compound 90]
12 | 1.83 µM | CN(CCN)Cc1c[nH]nc1-c1ccc(OC(F)(F)F)cc1 [Compound 93]
13 | 0.873 µM | CN(CCN)Cc1c[nH]nc1-c1ccc(OC(F)F)cc1 [Compound 94]
14 | 0.392 µM | CN(CCN)Cc1c[nH]nc1-c1ccc(Cl)cc1 [Compound 95]

The remaining lines, values behind:

Row | SMILES | IC50
15 | CN(CCN)Cc1c[nH]nc1-c1ccc(F)cc1 [Compound 1] | 1.35 µM
16 | CN(CCN)Cc1cnn(C)c1-c1ccc(F)cc1 [Compound 4] | 0.742 µM
17 | CCN(CCNC)Cc1c[nH]nc1-c1ccc(F)cc1 [Compound 9] | 2.81 µM
18 | CNCCN(C)Cc1cnn(C)c1-c1ccc(F)cc1 [Compound 10] | 1.19 µM
19 | CNCCN(C)Cc1cnn(CC2CCOCC2)c1-c1ccc(F)cc1 [Compound 12] | 4.84 µM
20 | CNCCN(C)Cc1c[nH]nc1-c1cccc(N)c1 [Compound 32] | 1.13 µM
21 | CNCCN(C)Cc1c[nH]nc1-c1ccc(CC#N)cc1 [Compound 34] | 1.37 µM
22 | CNCCN(C)Cc1c[nH]nc1-c1cccc(OC(F)(F)F)c1 [Compound 39] | 2.11 µM
23 | CNCCN(C)Cc1c[nH]nc1-c1cccc(NC(C)=O)c1 [Compound 42] | 2.24 µM
24 | CNCCN(C)Cc1c[nH]nc1-c1cccc(C(C)=O)c1 [Compound 44] | 1.09 µM
25 | CNCCN(C)Cc1c[nH]nc1-c1ccc(-c2ccccc2)cc1 [Compound 47] | 0.0283 µM
26 | CNCCN(C)Cc1c[nH]nc1-c1ccccc1F [Compound 48] | 5.62 µM
27 | CN(CCN)Cc1n[nH]cc1-c1ccc(F)cc1 [Compound 69] | 3.92 µM
28 | CN(CCN)Cc1cn(C2COC2)nc1-c1ccc(F)cc1 [Compound 77] | 4.09 µM
29 | CN(CCN)Cc1cnn(C2COC2)c1-c1ccc(F)cc1 [Compound 81] | 1.63 µM
30 | CN(CCN)Cc1c[nH]nc1-c1ccc(N2CCNCC2)cc1 [Compound 82] | 9.01 µM
31 | CN(CCN)Cc1nn(C)cc1-c1ccc(C#N)cc1 [Compound 83] | 1.13 µM
32 | CN(CCN)Cc1c[nH]nc1-c1ccc(C(F)(F)F)cc1 [Compound 92] | 0.69 µM
